Patent publication US5006342A, “Resilient transdermal drug delivery device” (Cygnus Corporation, priority 1989, dated 1991)

Columns and labels:
[1] = E2 in vitro steady-state skin flux across human cadaver skin (diffusion cells, 32° C.); type: in vitro ADME
[2] = in vitro release of E2 (reciprocating dissolution apparatus, USP Test Dissolution Method V, 32° C.); details: Example 1, 7-layer system, over 7 days
Procedure: The in vitro release of E2 from the 7-layer system was determined, using a reciprocating dissolution apparatus (USP Test Dissolution Method V) at 32° C., to be square-root-time-dependent over 7 days with a total cumulative release of 190 μg/cm^2 in 7 days (the flux was 14.66 μg/cm^2 /hr^1/2). The laminated composite was translucent and resilient, allowing the system to stretch with the stretching of skin when worn.

[3] = wearing study, E2 plasma levels in postmenopausal female subjects; type: in vivo, postmenopausal female subjects (human); details: postmenopausal females

C[C@]12CC[C@@H]3c4ccc(O)cc4CC[C@H]3[C@@H]1CC[C@@H]2O [Example E2, estradiol]
In vitro skin flux ([1]; Example 2, 7-layer, 14% PGML in L1): -0.15 μg/cm^2 /hr | In vitro skin flux ([1]; Example 3, 7-layer, Medifilm 810, E2 2.0% in L1 and 5.5% in L2): approximately 0.14 μg/cm^2 /hr | E2 skin flux ([1]; Example 4, 5-layer laminate (prepared similarly to Example 1)): -0.12 μg/cm^2 /hr | E2 skin flux ([1]; Example 5, 5-layer laminate (prepared similarly to Example 2)): ~ 0.15 μg/cm^2 /hr | flux from the 5-layer device ([1]; Examples 6 and 7, 5-layer device, Medifilm 810): -0.14 μg/cm^2 /hr | flux from the 5-layer device ([1]; Examples 8 and 9, 5-layer device, Medifilm 910): -0.11 μg/cm^2 /hr | in vitro release flux of E2 (square-root-time) [2]: 14.66 μg/cm^2 /hr^1/2 | time dependence of in vitro release of E2 [2]: square-root-time-dependent | constant plasma levels ([3]; Example 3, 30 cm^2 laminate, four day wearing, 5760 min): ~32 pg/mL | constant plasma concentration of E2 ([3]; Example 5, 30 cm^2 laminate, 7 day wearing): ~45 pg/mL | concentration at 96 h ([3]; human, plasma, topical or ocular, Example 3, 20 cm^2 laminate, four day wearing, read-out: constant plasma levels): ~0.025 ng/mL | concentration at 168 h ([3]; human, plasma, topical or ocular, Example 5, 20 cm^2 laminate, 7 day wearing, read-out: constant plasma concentration of E2): ~0.03 ng/mL
